Counter-ions that a name gives are not always drawn.
Legend:
MCF7 [1] = assay: Anticancer activity against human MCF7 cells assessed as inhibition of cell growth; assay type: functional, cell-based
NCI-H226 [2] = assay: Anticancer activity against human NCI-H226 cells assessed as cell growth at 100 uM incubated for 48 hrs by SRB assay; assay type: functional; details: read-out: Activity
MDA-MB-435 [3] = assay: Anticancer activity against human MDA-MB-435 cells assessed as inhibition of cell growth incubated for 48 hrs by SRB assay; assay type: functional
MDA-MB-468 [4] = assay: Anticancer activity against human MDA-MB-468 cells assessed as cell growth at 10 uM incubated for 48 hrs by SRB assay; assay type: functional; details: read-out: Activity
NCI-H226 [5] = assay: Anticancer activity against human NCI-H226 cells assessed as cell growth at 1 uM incubated for 48 hrs by SRB assay; assay type: functional; details: read-out: Activity
MCF7 [6] = assay: Anticancer activity against human MCF7 cells assessed as cell growth at 1 uM incubated for 48 hrs by SRB assay; assay type: functional; details: read-out: Activity
NCI-H226 [7] = assay: Anticancer activity against human NCI-H226 cells assessed as cell growth at 0.1 uM incubated for 48 hrs by SRB assay; assay type: functional; details: read-out: Activity
MDA-MB-468 [8] = assay: Anticancer activity against human MDA-MB-468 cells assessed as cell growth at 100 uM incubated for 48 hrs by SRB assay; assay type: functional; details: read-out: Activity
MDA-MB-435 [9] = assay: Anticancer activity against human MDA-MB-435 cells assessed as cell growth at 10 uM incubated for 48 hrs by SRB assay; assay type: functional; details: read-out: Activity
MDA-MB-468 [10] = assay: Anticancer activity against human MDA-MB-468 cells assessed as cell growth at 0.1 uM incubated for 48 hrs by SRB assay; assay type: functional; details: read-out: Activity
MCF7 [11] = assay: Anticancer activity against human MCF7 cells assessed as inhibition of cell growth incubated for 48 hrs by SRB assay; assay type: functional
MDA-MB-435 [12] = assay: Anticancer activity against human MDA-MB-435 cells assessed as cell growth at 1 uM incubated for 48 hrs by SRB assay; assay type: functional; details: read-out: Activity
MCF7 [13] = assay: Anticancer activity against human MCF7 cells assessed as cell growth at 0.1 uM incubated for 48 hrs by SRB assay; assay type: functional; details: read-out: Activity
MDA-MB-468 [14] = assay: Anticancer activity against human MDA-MB-468 cells assessed as inhibition of cell growth incubated for 48 hrs by SRB assay; assay type: functional
MDA-MB-435 [15] = assay: Anticancer activity against human MDA-MB-435 cells assessed as cell growth at 100 uM incubated for 48 hrs by SRB assay; assay type: functional; details: read-out: Activity
MDA-MB-468 [16] = assay: Anticancer activity against human MDA-MB-468 cells assessed as cell growth at 1 uM incubated for 48 hrs by SRB assay; assay type: functional; details: read-out: Activity
NCI-H226 [17] = assay: Anticancer activity against human NCI-H226 cells assessed as inhibition of cell growth incubated for 48 hrs by SRB assay; assay type: functional
MDA-MB-435 [18] = assay: Anticancer activity against human MDA-MB-435 cells assessed as cell growth at 0.1 uM incubated for 48 hrs by SRB assay; assay type: functional; details: read-out: Activity
NCI-H226 [19] = assay: Anticancer activity against human NCI-H226 cells assessed as cell growth at 10 uM incubated for 48 hrs by SRB assay; assay type: functional; details: read-out: Activity
MCF7 [20] = assay: Anticancer activity against human MCF7 cells assessed as cell growth at 10 uM incubated for 48 hrs by SRB assay; assay type: functional; details: read-out: Activity
MCF7 [21] = assay: Anticancer activity against human MCF7 cells assessed as cell growth at 100 uM incubated for 48 hrs by SRB assay; assay type: functional; details: read-out: Activity
[22] = read-out: LC50 (the source's name)

COc1cc(-c2nc3cc(F)ccc3s2)cc(O)c1OC
IC50 (MCF7 [1]): 0.653 µM

COc1cc(-c2nc3cc(F)ccc3s2)cc(OC)c1OC
IC50 (MCF7 [1]): 0.0019 µM

COc1ccc(-c2nc3c(F)cccc3s2)cc1OC
IC50 (MCF7 [1]): 0.005 µM

COCOc1ccc(-c2nc3cc(F)ccc3s2)cc1OC
IC50 (MCF7 [1]): 0.065 µM

CCOc1cc(-c2nc3cc(F)ccc3s2)ccc1OC
IC50 (MCF7 [1]): 0.08 µM

c1ccc2sc(-c3ccc4c(c3)OCO4)nc2c1
IC50 (MCF7 [1]): 57.8 µM

COc1ccc(-c2nc3cc(F)ccc3s2)cc1C
IC50 (MCF7 [1]): 0.048 µM

COc1ccc(-c2nc3cc(F)ccc3s2)cc1I
IC50 (MCF7 [1]): 0.82 µM

COc1ccc(-c2nc3ccccc3s2)cc1OC
IC50 (MCF7 [1]): 52.7 µM

COc1ccc(-c2nc3cc(F)ccc3s2)cc1F
IC50 (MCF7 [1]): 0.87 µM

COc1ccc(-c2nc3cc(F)ccc3s2)cc1Cl
IC50 (MCF7 [1]): 0.76 µM

COc1ccc(-c2nc3cc(F)ccc3s2)cc1Br
IC50 (MCF7 [1]): 0.85 µM

COc1ccc(-c2nc3cc(Cl)ccc3s2)cc1OC
IC50 (MCF7 [1]): 27.9 µM

COc1cc(OC)cc(-c2nc3cc(F)ccc3s2)c1
IC50 (MCF7 [1]): 1.23 µM

COc1ccc(-c2nc3ccc(F)cc3s2)cc1OC
IC50 (MCF7 [1]): 0.062 µM

O=c1c(-c2cccc([N+](=O)[O-])c2)coc2ccccc12
IC50 (MCF7 [1]): 7.9 µM

COc1ccc(-c2coc3cc(F)c(F)cc3c2=O)cc1OC
IC50 (MCF7 [1]): 41.5 µM

COc1ccc(-c2coc3c(F)cccc3c2=O)cc1OC
IC50 (MCF7 [1]): 75.5 µM

COc1ccc(-c2coc3c(F)c(F)ccc3c2=O)cc1OC
IC50 (MCF7 [1]): 47.2 µM

O=c1c(-c2ccc(Cl)cc2)coc2ccccc12
IC50 (MCF7 [1]): 64.9 µM

O=c1c(-c2ccc3c(c2)OCO3)coc2ccc(F)cc12
IC50 (MCF7 [1]): 60 µM

COc1ccc(-c2coc3cc(F)ccc3c2=O)cc1
IC50 (MCF7 [1]): 43.8 µM

COc1ccc(-c2coc3cc(F)ccc3c2=O)cc1OC
IC50 (MCF7 [1]): 90.6 µM

COc1ccc(-c2coc3ccccc3c2=O)cc1OC
IC50 (MCF7 [1]): 88.1 µM

Cc1cc(-c2nc3cc(F)ccc3s2)ccc1N
IC50 (MCF7 [1]): 0.0001 µM

COc1ccc(-c2nc3cc(Br)ccc3s2)cc1OC
IC50 (MCF7 [1]): 13.6 µM

COc1ccc(-c2nc3cc(F)ccc3s2)c(OC)c1OC
IC50 (MCF7 [1]): 0.023 µM

Oc1ccc(-c2nc3cc(F)ccc3s2)cc1O
IC50 (MCF7 [1]): 0.72 µM

COc1ccc(-c2coc3ccc(F)cc3c2=O)cc1OC
IC50 (MCF7 [1]): 93.1 µM

COc1ccc(-c2coc3ccccc3c2=O)cc1
IC50 (MCF7 [1]): 81.4 µM

O=c1c(-c2ccc(Br)cc2)coc2ccccc12
IC50 (MCF7 [1]): 8.8 µM

COc1ccc(-c2coc3c(F)cc(F)cc3c2=O)cc1OC
IC50 (MCF7 [1]): 46.7 µM

CCOc1ccc(-c2nc3cc(F)ccc3s2)cc1OCC
IC50 (MCF7 [1]): 0.0007 µM

COc1ccc(-c2nc3cc(F)ccc3s2)cc1
IC50 (MCF7 [1]): 0.49 µM

Fc1ccc2sc(-c3ccc4c(c3)OCO4)nc2c1
IC50 (MCF7 [1]): 20.7 µM

Oc1ccc(-c2nc3ccc(Br)cc3s2)cc1
IC50 (MCF7 [1]): 4.16 µM

COc1cc(-c2nc3cc(F)ccc3o2)cc(OC)c1OC
IC50 (MCF7 [1]): 16 µM

COc1ccc2nc(-c3ccc(O)cc3)sc2c1
IC50 (MCF7 [1]): 45.8 µM

Oc1ccc(-c2nc3ccc(Cl)cc3s2)cc1
IC50 (MCF7 [1]): 26.5 µM

Oc1ccc(-c2nc3cc(C(F)(F)F)ccc3s2)cc1
IC50 (MCF7 [1]): 13.8 µM

Oc1cccc(-c2nc3cc(F)ccc3s2)c1
IC50 (MCF7 [1]): 0.57 µM

Oc1ccc(-c2nc3cc(F)ccc3s2)cc1
IC50 (MCF7 [1]): 0.4 µM

COc1cc(OC)cc(-c2nc3ccc(F)cc3o2)c1
IC50 (MCF7 [1]): 3.72 µM

COc1ccc(-c2cc(=O)c3ccc(F)cc3o2)cc1OC
IC50 (MCF7 [1]): 27.9 µM

COc1cccc(OC)c1-c1nc2cc(F)ccc2o1
IC50 (MCF7 [1]): 58.1 µM

Fc1ccc2oc(-c3ccc4c(c3)OCO4)nc2c1
IC50 (MCF7 [1]): 61.4 µM

COc1cccc(-c2nc3ccc(F)cc3o2)c1
IC50 (MCF7 [1]): 35.1 µM

COc1ccc(-c2nc3ccc(F)cc3o2)cc1
IC50 (MCF7 [1]): 41 µM

Fc1ccc2nc(-c3ccc4c(c3)OCO4)oc2c1
IC50 (MCF7 [1]): 19.2 µM

COc1ccc(-c2cc(=O)c3cc(F)ccc3o2)cc1OC
IC50 (MCF7 [1]): 83.4 µM

COc1cc(-c2nc3ccc(F)cc3o2)cc(OC)c1OC
IC50 (MCF7 [1]): 1.09 µM

COc1ccccc1-c1nc2cc(F)ccc2o1
IC50 (MCF7 [1]): 0.36 µM

COc1cccc(-c2nc3cc(F)ccc3o2)c1
IC50 (MCF7 [1]): 39.5 µM

COc1ccc(-c2nc3ccc(F)cc3o2)c(OC)c1
IC50 (MCF7 [1]): 69.9 µM

COc1ccc(-c2nc3cc(F)ccc3o2)cc1OC
IC50 (MCF7 [1]): 0.83 µM

COc1cccc(OC)c1-c1nc2ccc(F)cc2o1
IC50 (MCF7 [1]): 90.7 µM

CS(=O)(=O)c1ccc2nc(-c3ccc(O)cc3)sc2c1
IC50 (MCF7 [1]): 62.3 µM

COc1ccc(-c2nc3cc(F)ccc3o2)cc1
IC50 (MCF7 [1]): 22.7 µM

COc1cc(OC)cc(-c2nc3cc(F)ccc3o2)c1
IC50 (MCF7 [1]): 45.4 µM

Cc1ccc(-c2nc3cc(F)ccc3s2)cc1O
IC50 (MCF7 [1]): 0.5 µM

COc1ccccc1-c1nc2ccc(F)cc2s1
IC50 (MCF7 [1]): 0.82 µM

Cc1c(F)c(N)c2c(=O)cc(-c3ccc(N)c(F)c3)oc2c1F [AMINOFLAVONE]
IC50 (MCF7 [1]): 0.035 µM

COc1cccc2c1C(=O)c1c(O)c3c(c(O)c1C2=O)C[C@@](O)(C(=O)CO)C[C@@H]3O[C@H]1C[C@H](N)[C@H](O)[C@H](C)O1 [DOXORUBICIN HYDROCHLORIDE]
growth at 100 µM (NCI-H226 [2]): -38.3% | GI50 (MDA-MB-435 [3]): < 0.1 µM | TGI (MDA-MB-435 [3]): 43.4 µM | growth at 10 µM (MDA-MB-468 [4]): 22% | growth at 1 µM (NCI-H226 [5]): 12.7% | growth at 1 µM (MCF7 [6]): 17.2% | growth at 0.1 µM (NCI-H226 [7]): 57.4% | growth at 100 µM (MDA-MB-468 [8]): -60.9% | growth at 10 µM (MDA-MB-435 [9]): -26.6% | growth at 0.1 µM (MDA-MB-468 [10]): 83% | GI50 (MCF7 [11]): < 0.1 µM | TGI (MCF7 [11]): 90.4 µM | CC50 (MCF7 [11]; [22]): > 100 µM | growth at 1 µM (MDA-MB-435 [12]): 42.8% | growth at 0.1 µM (MCF7 [13]): 28.5% | GI50 (MDA-MB-468 [14]): 10.5 µM | TGI (MDA-MB-468 [14]): 50.4 µM | CC50 (MDA-MB-468 [14]; [22]): 90.2 µM | growth at 100 µM (MDA-MB-435 [15]): -30.9% | growth at 1 µM (MDA-MB-468 [16]): 64.5% | GI50 (NCI-H226 [17]): < 0.1 µM | TGI (NCI-H226 [17]): 43.2 µM | growth at 0.1 µM (MDA-MB-435 [18]): 50.8% | growth at 10 µM (NCI-H226 [19]): 8.1% | growth at 10 µM (MCF7 [20]): 10.5% | growth at 100 µM (MCF7 [21]): -1.6%
